# Measurements taken from ChEMBL document CHEMBL1144892, “Synthesis and biological activity of various derivatives of a novel class of potent, selective, and orally active prostaglandin D2 receptor antagonists. 2. 6,6-Dimethylbicyclo[3.1.1]heptane derivatives” (J Med Chem, 2003).
# Assays:
# [1] = molecular target: T1, Prostaglandin D2 receptor (Homo sapiens, UniProt Q13258); assay: Prostaglandin D2 receptor antagonist activity, evaluated by inhibition of [3H]PGD-2 binding to human platelet membranes
# T1 sequence (Q13258 whole entry): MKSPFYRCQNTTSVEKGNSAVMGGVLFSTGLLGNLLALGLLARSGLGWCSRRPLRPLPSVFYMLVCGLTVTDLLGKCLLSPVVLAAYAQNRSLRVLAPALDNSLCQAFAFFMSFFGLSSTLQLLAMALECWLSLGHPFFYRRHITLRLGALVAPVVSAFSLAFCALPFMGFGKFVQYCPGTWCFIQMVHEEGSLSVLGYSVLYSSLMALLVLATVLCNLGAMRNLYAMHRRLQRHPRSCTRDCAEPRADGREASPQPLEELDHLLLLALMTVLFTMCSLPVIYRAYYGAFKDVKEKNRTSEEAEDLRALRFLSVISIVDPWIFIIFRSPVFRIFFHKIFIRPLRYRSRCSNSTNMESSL
# [2] = molecular target: T1, Prostaglandin D2 receptor; assay: Concentration required to inhibit the PGD-2 evoked cAMP formation in human platelets; type: functional
# Cavia porcellus [3] = assay: In vivo inhibition of antigen-induced increase in intranasal pressure in actively sensitized guinea pig administered perorally with 10 mg/Kg compound, 10 minutes before the antigen challenge; type: functional; details: oral
# Cavia porcellus [4] = assay: In vivo inhibition of antigen-induced increase in intranasal pressure in actively sensitized guinea pig administered perorally with 3 mg/Kg compound, 10 minutes before the antigen challenge; type: functional; details: inhaled or nasal
# Cavia porcellus [5] = assay: Effective dose required to inhibit conjuctival microvascular permeability caused by topical application of 0.1% PGD-2 in guinea pig administered perorally with compound, 1 hour before the test; type: functional
# Cavia porcellus [6] = assay: Compound at 10 mg/kg was tested for the inhibition of increase in eosinophil number in nasal lavage fluid at 5 hr after intranasal antigen challenge in actively sensitized guinea pig; type: functional; details: inhaled or nasal
# Cavia porcellus [7] = assay: Percent inhibition against increase in specific airway resistance by antigen inhalation in conscious guinea pig administered perorally with 10 mg/Kg of compound, 1 hr before the test; type: functional
# Cavia porcellus [8] = assay: Compound at 10 mg/kg was tested for the inhibition of increase in eosinophil number in bronchoalveolar lavage fluid at 72 hr after inhalation of aerosol antigen in actively sensitized guinea pig; type: functional; details: Lung, inhaled or nasal
# Cavia porcellus [9] = assay: Effective dose required to inhibit conjuctival microvascular permeability caused by topical application of 0.1% antigen in guinea pig administered perorally with compound, 1 hour before the test; type: functional
# Cavia porcellus [10] = assay: In vivo percent inhibition against antigen induced increase in intranasal pressure in actively sensitized guinea pig administered intravenously with 1 mg/Kg of compound; type: functional
# Cavia porcellus [11] = assay: In vivo inhibition of antigen-induced increase in intranasal pressure in actively sensitized guinea pig administered intravenously with 1 mg/Kg compound, 10 minutes before the antigen challenge; type: functional
# Cavia porcellus [12] = assay: Percent inhibition against antigen induced increase in intranasal pressure in actively sensitized guinea pig administered intravenously with 1 mg/Kg of compound; type: functional
IC50 [1],IC50 [2],Compound,other results
> 10000 nM,> 1000 nM,CC1(C)[C@H]2C[C@H](CC(=O)CCCCC(=O)O)[C@@H](NC(=O)c3ccsc3)[C@@H]1C2,
3900 nM,190 nM,COc1ccc(C(=O)N[C@@H]2[C@@H](C/C=C/CCCC(=O)O)C[C@H]3C[C@@H]2C3(C)C)cc1,
,93 nM,CC1(C)[C@H]2C[C@H](C/C=C/CCCc3nnn[nH]3)[C@@H](NC(=O)c3ccsc3)[C@@H]1C2,
420 nM,110 nM,Cn1ccc(C(=O)N[C@@H]2[C@@H](C/C=C/CCCC(=O)O)C[C@H]3C[C@@H]2C3(C)C)c1,
1.9 nM,0.9 nM,CC1(C)[C@H]2C[C@H](C/C=C/CCCC(=O)O)[C@@H](NC(=O)c3csc4ccc(O)cc34)[C@@H]1C2,inhibition in vivo at 10 mg/kg (Cavia porcellus [3]): 96%; inhibition in vivo at 3 mg/kg (Cavia porcellus [4]): 64%; ED50 (Cavia porcellus [5]): 0.12 mg/kg; inhibition in vivo at 10 mg/kg (Cavia porcellus [6]): 80%; Inhibition (Cavia porcellus [7]): 70%; inhibition in vivo at 10 mg/kg (Cavia porcellus [8]): 43%; ED50 (Cavia porcellus [9]): 2 mg/kg
180 nM,20 nM,Cc1sccc1C(=O)N[C@@H]1[C@@H](C/C=C/CCCC(=O)O)C[C@H]2C[C@@H]1C2(C)C,
3400 nM,240 nM,CC1(C)[C@H]2C[C@H](C/C=C/CCCC(=O)O)[C@@H](NC(=O)c3ccc(O)cc3)[C@@H]1C2,
590 nM,74 nM,Cc1scc(C(=O)N[C@@H]2[C@@H](C/C=C/CCCC(=O)O)C[C@H]3C[C@@H]2C3(C)C)c1-c1ccccc1,
7500 nM,30 nM,CC1(C)[C@H]2C[C@H](C/C=C/CCCC(=O)O)[C@@H](NC(=O)c3csc4ccc(NS(C)(=O)=O)cc34)[C@@H]1C2,
1300 nM,> 1000 nM,CC1(C)[C@H]2C[C@H](NS(=O)(=O)c3ccc(-c4ccccc4)cc3)[C@@H](C/C=C\CCCC(=O)O)[C@@H]1C2,
1300 nM,> 1000 nM,CC1(C)[C@H]2C[C@@H](NS(=O)(=O)c3ccc(-c4ccccc4)cc3)[C@H](C/C=C\CCCC(=O)O)[C@@H]1C2,
520 nM,110 nM,CC1(C)[C@H]2C[C@H](C/C=C/CCCC(=O)O)[C@@H](NC(=O)c3c[nH]c4ccccc34)[C@@H]1C2,
1200 nM,530 nM,CC1(C)[C@H]2C[C@H](C/C=C\CCCC(=O)O)[C@@H](NS(=O)(=O)c3ccc(-c4ccccc4)cc3)[C@@H]1C2,
3300 nM,15 nM,CC1(C)[C@H]2C[C@H](C/C=C/CCCC(=O)O)[C@@H](NC(=O)c3cccs3)[C@@H]1C2,Inhibition (Cavia porcellus [10]): 38%
42 nM,100 nM,CC1(C)[C@H]2C[C@H](C/C=C/CCCC(=O)O)[C@@H](NC(=O)c3csc(-c4ccccc4)c3)[C@@H]1C2,
47 nM,470 nM,CC1(C)[C@H]2C[C@H](C/C=C\CCCC(=O)O)[C@@H](NC(=O)c3ccc(-c4ccccc4)cc3)[C@@H]1C2,inhibition in vivo at 1 mg/kg (Cavia porcellus [11]): 30%
,,CC1(C)[C@H]2C[C@H](C/C=C\CCCC(=O)O)[C@@H](NC(=O)c3ccc(/N=N/c4ccccc4)cc3)[C@@H]1C2,inhibition in vivo at 1 mg/kg (Cavia porcellus [11]): 60%
5100 nM,> 1000 nM,CC1(C)[C@H]2C[C@H](NC(=O)c3ccc(-c4ccccc4)cc3)[C@@H](C/C=C\CCCC(=O)O)[C@@H]1C2,
,,CC1(C)[C@H]2C[C@H](C/C=C\CCCC(=O)O)[C@@H](NC(=O)c3ccccc3)[C@@H]1C2,inhibition in vivo at 1 mg/kg (Cavia porcellus [11]): 52%
3600 nM,> 1000 nM,CC1(C)[C@H]2C[C@@H](NC(=O)c3ccc(-c4ccccc4)cc3)[C@H](C/C=C\CCCC(=O)O)[C@@H]1C2,
520 nM,56 nM,COc1cc(C(=O)N[C@@H]2[C@@H](C/C=C/CCCC(=O)O)C[C@H]3C[C@@H]2C3(C)C)cs1,
32 nM,22 nM,CC1(C)[C@H]2C[C@H](C/C=C/CCCC(=O)O)[C@@H](NC(=O)c3csc4ccccc34)[C@@H]1C2,inhibition in vivo at 10 mg/kg (Cavia porcellus [3]): 82%

IC50 [1],IC50 [2],Compound,other results
> 10000 nM,> 1000 nM,CC1(C)[C@H]2C[C@H](C/C=C/CCCC(=O)O)[C@@H](NC(=O)Cc3ccccc3)[C@@H]1C2,
> 10000 nM,> 1000 nM,CC1(C)[C@H]2C[C@H](C/C=C/CCCC(=O)O)[C@@H](NC(=O)C3CCCCC3)[C@@H]1C2,
2100 nM,170 nM,CC1(C)[C@H]2C[C@H](C/C=C/CCCC(=O)O)[C@@H](NC(=O)c3ccc4c(c3)OCO4)[C@@H]1C2,
0.42 nM,3.2 nM,CC1(C)[C@H]2C[C@H](C/C=C/CCCC(=O)O)[C@@H](NC(=O)c3csc4ccc(F)cc34)[C@@H]1C2,inhibition in vivo at 3 mg/kg (Cavia porcellus [4]): 86%; ED50 (Cavia porcellus [5]): 3.5 mg/kg; Inhibition (Cavia porcellus [7]): 69%; ED50 (Cavia porcellus [9]): 8.9 mg/kg
1600 nM,38 nM,CC1(C)[C@H]2C[C@H](C/C=C/CCCC(=O)O)[C@@H](NC(=O)c3ccsc3)[C@@H]1C2,ED50 (Cavia porcellus [5]): 3.5 mg/kg; Inhibition (Cavia porcellus [7]): 15%; Inhibition (Cavia porcellus [12]): 77%; ED50 (Cavia porcellus [9]): 9.5 mg/kg
690 nM,76 nM,CC1(C)[C@H]2C[C@H](C/C=C/CCCC(=O)O)[C@@H](NC(=O)c3cc4ccccc4o3)[C@@H]1C2,
4500 nM,230 nM,COc1cscc1C(=O)N[C@@H]1[C@@H](C/C=C/CCCC(=O)O)C[C@H]2C[C@@H]1C2(C)C,
,73 nM,CC1(C)[C@H]2C[C@H](C/C=C/CCCC(=O)O)[C@@H](NC(=O)c3ccc4ccccc4c3)[C@@H]1C2,
4600 nM,320 nM,COc1ccccc1C(=O)N[C@@H]1[C@@H](C/C=C/CCCC(=O)O)C[C@H]2C[C@@H]1C2(C)C,
13 nM,25 nM,Cc1cc(C(=O)N[C@@H]2[C@@H](C/C=C/CCCC(=O)O)C[C@H]3C[C@@H]2C3(C)C)cs1,
6000 nM,410 nM,CC1(C)[C@H]2C[C@H](C/C=C/CCCC(=O)NS(C)(=O)=O)[C@@H](NC(=O)c3ccsc3)[C@@H]1C2,
> 10000 nM,500 nM,CC1(C)[C@H]2C[C@H](C/C=C/CCCC(=O)O)[C@@H](NC(=O)c3cncs3)[C@@H]1C2,
330 nM,,CC1(C)[C@H]2C[C@H](C/C=C/CCCC(=O)O)[C@@H](NC(=O)c3cccnc3)[C@@H]1C2,
4400 nM,110 nM,CC1(C)[C@H]2C[C@H](C/C=C/CCCC(=O)O)[C@@H](NC(=O)c3ccc([N+](=O)[O-])cc3)[C@@H]1C2,
> 10000 nM,> 1000 nM,CN(C(=O)c1ccsc1)[C@@H]1[C@@H](C/C=C/CCCC(=O)O)C[C@H]2C[C@@H]1C2(C)C,
19 nM,390 nM,CC1(C)[C@H]2C[C@H](C/C=C/CCCC(=O)O)[C@@H](NC(=O)c3cc4ccccc4s3)[C@@H]1C2,
560 nM,17 nM,CC1(C)[C@H]2C[C@H](C/C=C/CCCC(=O)O)[C@@H](NC(=O)Cc3ccoc3)[C@@H]1C2,
,37 nM,CC1(C)[C@H]2C[C@H](C/C=C/CCCC(=O)O)[C@@H](NC(=O)c3ccc[nH]3)[C@@H]1C2,
> 10000 nM,> 1000 nM,CN(C(=O)c1ccccc1)[C@@H]1[C@@H](C/C=C/CCCC(=O)O)C[C@H]2C[C@@H]1C2(C)C,
150 nM,35 nM,CC1(C)[C@H]2C[C@H](C/C=C/CCCC(=O)O)[C@@H](NC(=O)c3csc4c3CCCC4)[C@@H]1C2,
26 nM,5.6 nM,CC1(C)[C@H]2C[C@H](C/C=C/CCCC(=O)O)[C@@H](NC(=O)c3cccc4ccsc34)[C@@H]1C2,inhibition in vivo at 10 mg/kg (Cavia porcellus [3]): 70%
2.2 nM,18 nM,CC1(C)[C@H]2C[C@H](C/C=C/CCCC(=O)O)[C@@H](NC(=O)c3csc4cc(O)ccc34)[C@@H]1C2,inhibition in vivo at 10 mg/kg (Cavia porcellus [3]): 88%
